Patent US20010006667A1, “USE AND COMPOSITION OF AN ANTI-SEXUALLY TRANSMITTED DISEASES FORMULATION” (priority 1994, published 2001)

Test system: HIV LAV1 BRU retrovirus clone
Assay: Syncytia formation in HT4LacZ cells infected with an HIV viral suspension pre-mixed with test substance
Format: cell-based
Description: The formulations were prepared according to the description discussed above, except that the F-Po was prepared with about 2% polycarbophil, no N-9 and about a 1% concentration of Carbomer 934P, rather than 0.5%, and the difference (2%) was made up with additional water.
A viral blank was used as control, and AZT was used for a positive control. Each formulation was set up as an aqueous suspension of a particular concentration. 500 μl. aliquots of viral suspension were separately mixed with 50 ,μl. of each of the test solutions. After 30 minutes, 55 μl. of each of these mixtures were tested directly on HT4LacZ cells in a well also containing DEAE dextran. During the culturing period, the virus supplies the tat gene missing in HT4LacZ cells, leading to LacZ gene transactivation coding for β-galactosidase, indicated by a histochemical coloration. After 72 hours of culturing, infection is stopped by addition of a fixator for ten minutes. After two PBS washes, the colorant is added for ninety minutes. After syncytia (giant multi-nucleated cells, formed by many cells fusing together when infected with HIV) outbreak, the colorant is replaced with water. Observation is performed with an optical microscope, yielding the following results in Table 1: […]

Compound	viral infection remaining, % of that exhibited by the HIV viral suspension (FIG. 1) (0.1 μg/ml)	viral infection remaining, % of that exhibited by the HIV viral suspension (FIG. 1) (1 μg/ml)	Avg. # Syncytia per well (final conc. 0.10 μg/ml)	Percent Reduction (of syncytia vs viral reference) (final conc. 0.10 μg/ml)	Total # Syncytia (final conc. 0.10 μg/ml)	Avg. # Syncytia per well (final conc. 1.0 μg/ml)	Percent Reduction (of syncytia vs viral reference) (final conc. 1.0 μg/ml)	Total # Syncytia (final conc. 1.0 μg/ml)	Avg. # Syncytia per well (final conc. 10^−5M)	Percent Reduction (of syncytia vs viral reference) (final conc. 10^−5M)	Total # Syncytia (final conc. 10^−5M)
nonoxynol-9 [N-9]	72%	36%	11.5	28%	46	5.75	64%	23			
Cc1cn([C@H]2C[C@H](N=[N+]=[N-])[C@@H](CO)O2)c(=O)[nH]c1=O [AZT]									0	100%	0
